From publication PMC4405831, “Mast cell regulation of Na-glutamine co-transporters B0AT1 in villus and SN2 in crypt cells during chronic intestinal inflammation” (BMC Gastroenterology, 2015)

Test system: T1, B0AT1
T1 construct: gene SLC6A19; native full-length transporter in brush border membrane vesicles from ileal villus cells; not purified
Assay: 3H-glutamine uptake into villus BBMV, rapid filtration, […] s
Format: biochemical, Oryctolagus cuniculus
Conditions: labelled compound; Na-dependent uptake (100 mM NaCl minus choline), pH 7.5, voltage clamped; normal (control) rabbits

- Km: 24 ± 1.5 mM
SMILES: NC(=O)CC[C@H](N)C(=O)O [glutamine]
